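Five compound concentrations were applied to cells in 96-well plates for 48 hours; endpoints were derived by simple linear interpolation of the resulting dose-response curve. The concentration for 50% growth inhibition is given as GI50. TGI: total growth inhibition.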
Experiments:
Assay in all cases: DTP human tumour cell line panel, 48 h
U251 CNS = tested on: U251 CNS
SK-OV-3 ovarian = tested on: SK-OV-3 ovarian
HCT-15 colon = tested on: HCT-15 colon
SNB-75 CNS = tested on: SNB-75 CNS
MDA-MB-231 breast = tested on: MDA-MB-231 breast
COLO 205 colon = tested on: COLO 205 colon
OVCAR-5 ovarian = tested on: OVCAR-5 ovarian
CAKI-1 renal = tested on: CAKI-1 renal
SF-268 CNS = tested on: SF-268 CNS
PC-3 prostate = tested on: PC-3 prostate
DU-145 prostate = tested on: DU-145 prostate
UO-31 renal = tested on: UO-31 renal
MALME-3M melanoma = tested on: MALME-3M melanoma
HT29 colon = tested on: HT29 colon
CCRF-CEM leukemia = tested on: CCRF-CEM leukemia
RPMI-8226 leukemia = tested on: RPMI-8226 leukemia
TK-10 renal = tested on: TK-10 renal
SN12C renal = tested on: SN12C renal
786-0 renal = tested on: 786-0 renal
EKVX NSCLC = tested on: EKVX NSCLC
SNB-19 CNS = tested on: SNB-19 CNS
HOP-92 NSCLC = tested on: HOP-92 NSCLC
HCT-116 colon = tested on: HCT-116 colon
HCC-2998 colon = tested on: HCC-2998 colon
NCI/ADR-RES ovarian = tested on: NCI/ADR-RES ovarian
UACC-257 melanoma = tested on: UACC-257 melanoma
OVCAR-8 ovarian = tested on: OVCAR-8 ovarian
T-47D breast = tested on: T-47D breast

SMILES: CCOC(=O)c1ccc(NC2=C(Cl)C(=O)c3nc(C)ccc3C2=O)cc1
- GI50 (U251 CNS): 3.75 µM
- TGI (U251 CNS): 16.1 µM
- GI50 (SK-OV-3 ovarian): 10.5 µM
- TGI (SK-OV-3 ovarian): 23.9 µM
- GI50 (HCT-15 colon): 1.57 µM
- TGI (HCT-15 colon): 3.37 µM
- GI50 (SNB-75 CNS): 2.3 µM
- TGI (SNB-75 CNS): 10.3 µM
- GI50 (MDA-MB-231 breast): 3.73 µM
- TGI (MDA-MB-231 breast): 17.1 µM
- GI50 (COLO 205 colon): 1.75 µM
- TGI (COLO 205 colon): 3.58 µM
- GI50 (OVCAR-5 ovarian): 13.2 µM
- TGI (OVCAR-5 ovarian): 33.7 µM
- GI50 (CAKI-1 renal): 1.53 µM
- TGI (CAKI-1 renal): 2.99 µM
- GI50 (SF-268 CNS): 3.86 µM
- TGI (SF-268 CNS): 17.1 µM
- GI50 (PC-3 prostate): 3.31 µM
- TGI (PC-3 prostate): 15.7 µM
- GI50 (DU-145 prostate): 1.82 µM
- TGI (DU-145 prostate): 3.4 µM
- GI50 (UO-31 renal): 1.54 µM
- TGI (UO-31 renal): 3.01 µM
- GI50 (MALME-3M melanoma): 1.83 µM
- TGI (MALME-3M melanoma): 3.62 µM
- GI50 (HT29 colon): 2.18 µM
- TGI (HT29 colon): 5.13 µM
- GI50 (CCRF-CEM leukemia): 1.27 µM
- TGI (CCRF-CEM leukemia): 4.88 µM
- GI50 (RPMI-8226 leukemia): 2.16 µM
- TGI (RPMI-8226 leukemia): 5.95 µM
- GI50 (TK-10 renal): 1.79 µM
- TGI (TK-10 renal): 3.24 µM
- GI50 (SN12C renal): 3.51 µM
- TGI (SN12C renal): 20.2 µM
- GI50 (786-0 renal): 1.88 µM
- TGI (786-0 renal): 3.93 µM
- GI50 (EKVX NSCLC): 2.53 µM
- TGI (EKVX NSCLC): 7.55 µM
- GI50 (SNB-19 CNS): 4.76 µM
- TGI (SNB-19 CNS): 89.4 µM
- GI50 (HOP-92 NSCLC): 1.8 µM
- TGI (HOP-92 NSCLC): 3.48 µM
- GI50 (HCT-116 colon): 1.87 µM
- TGI (HCT-116 colon): 4.36 µM
- GI50 (HCC-2998 colon): 3.63 µM
- TGI (HCC-2998 colon): 13.8 µM
- GI50 (NCI/ADR-RES ovarian): 2.57 µM
- TGI (NCI/ADR-RES ovarian): 9.61 µM
- GI50 (UACC-257 melanoma): 1.63 µM
- TGI (UACC-257 melanoma): 3.12 µM
- GI50 (OVCAR-8 ovarian): 4.38 µM
- TGI (OVCAR-8 ovarian): 18.4 µM
- GI50 (T-47D breast): 2.1 µM
- TGI (T-47D breast): 5.09 µM

— PubChem BioAssay (NCI)
